In patent publication US20120076808A1, “COMBINED ANTIGEN AND DNA VACCINE FOR PREVENTING AND TREATING AUTOIMMUNE DISEASES” (CHINA AGRICULTURAL UNIVERSITY, priority 2010, published 2012):

Experiments:
[1] = tested on: JAWS II cells; experiment: Endocytosis inhibitor pre-treatment of JAWS II cells fed pOVA323+OVA323, CD40 staining; type: cell-based, mouse; conditions: pre-treatment before pOVA323+OVA323
Description: FIG. 24. DCs co-take up DNA and protein immunogens via clathrin- and caveolae-mediated endocytosis. A) JAWS II cells were pre-treated with PBS, MDC (50 μM), or filipin (10 μg/ml) for 30 min at 37° C. and then fed Cy5-pOVA323+FITC-OVA323 or Cy5-pVAX+FITC-OVA323 for 24 h. The cells were stained with anti-CD40-PE and analyzed by flow cytometry. Shown is CD40 staining of Cy5/FITC double-positive cells (gated). B) A summary of the experimental results are shown.
FIG. 30. Effect of amiloride on the expression of CD40 in JAWS II cells. JAWS II cells were pre-treated with amiloride (5 mM) for 10 min at 37° C. and then co-treated with Cy5-pOVA323+FITC-OVA323 or Cy5-pVAX+FITC-OVA323 for 24 h. The cells were stained with anti-CD40-PE and analyzed by flow cytometry.
The JAWS II mouse DC line was purchased from the American Type Culture Collection (ATCC, Manassas, Va., USA) and maintained in complete growth medium containing minimum essential medium (MEM) alpha with ribonucleosides, deoxyribonucleosides, 4 mM L-glutamine, and 1 mM sodium pyruvate (Invitrogen Inc., Carlsbad, Calif., USA), and supplemented with 20% fetal bovine serum (ATCC) and 5 ng/ml murine recombinant GM-CSF (R&D Systems, Inc., Minneapolis, Minn., USA). The cells were incubated at 37° C. with 5% CO2 and treated with different antigens (10 μg/ml) such as pVAX, pOVA, OVA, pOVA323 and OVA323 for 24 h. […]

[2] = tested on: BALB/c mice with OVA-induced inflammatory bronchitis; experiment: OVA-induced inflammatory bronchitis, adoptive transfer of DCregs; type: in vivo; conditions: DCs pretreated with filipin
Description: FIG. 28. Co-immunization-induced DCregs ameliorate inflammatory bronchitis. A) Experimental design: Balb/c mice were injected with 0.1 ml of 1 mg/ml OVA/alum complexes in PBS on days 0 and 7 by i.p. and subsequently challenged with 100 μg OVA intra-tracheally on days 14, 16 and 18 to establish the “model”. Control mice were received with PBS intra-tracheally on days 14, 16 and 18 and designated as the “shame” control. On day 21, 5×10^5 of CD11c+ cells from syngeneic donor mice were transferred into model mice once daily for 3 consecutive days by i.v. (n=3 per group). Prior to the transfer, donor CD11c+ cells purified from spleen of naïve mice were pre-treated with or without filipin and subsequently co-treated with pOVA+OVA or pVAX+OVA for 24 h. On day 14 after the final transfer, serum samples were taken to analyze the levels of IgE or cytokine productions. Sections of lung tissues were made to evaluate disease severity. B) the level of antigen specific IgE was analyzed by ELISA following adoptive transfer of indicated DCs. […] D) Lung sections were examined by H&E staining and recorded under a light microscope at ×100 and ×200 magnification. […]
Lung or ovary were fixed in 4% paraformaldehyde or Bouin's solution and embedded in paraffin blocks. […] Histopathology of lung or ovary was evaluated under a light microscope. […]

## CCCCC[C@@H](O)[C@H]1C(=O)O[C@H](C)[C@@H](O)/C=C/C=C/C=C/C=C/C=C(\C)[C@@H](O)C[C@H](O)C[C@H](O)C[C@H](O)C[C@H](O)C[C@H](O)C[C@@H]1O [filipin]
[1]
  effect on CD40low phenotype / CD40 expression: could prevent the CD40^1′ phenotype, filipin was more effective than MDC
[2]
  anti-inflammatory effect of pOVA+OVA treated DCs after inhibitor pre-treatment: absent
